# Test results as given in ChEMBL document CHEMBL2440076, “New triarylpyrazoles as broad-spectrum anticancer agents: design, synthesis, and biological evaluation” (Eur J Med Chem, 2013).
# Experiments:
# [1] = Growth inhibition of human Hs 578T cells assessed as cell growth at 10 uM after 48 hrs by sulforhodamine B assay; format: functional; details: read-out: Activity
# DU-145 [2] = assay: Growth inhibition of human DU145 cells assessed as cell growth at 10 uM after 48 hrs by sulforhodamine B assay; format: functional; details: DU-145, 48 h, read-out: Activity
# TK-10 = assay: Growth inhibition of human TK10 cells assessed as cell growth at 10 uM after 48 hrs by sulforhodamine B assay; format: functional; details: TK-10, 48 h, read-out: Activity
# HT-29 [3] = assay: Growth inhibition of human HT-29 cells after 48 hrs by sulforhodamine B assay; format: functional; details: HT-29, 48 h
# HCT-116 = assay: Growth inhibition of human HCT116 cells after 48 hrs by sulforhodamine B assay; format: functional; details: HCT-116, 48 h
# HCT-15 [4] = assay: Growth inhibition of human HCT15 cells after 48 hrs by sulforhodamine B assay; format: functional; details: HCT-15, 48 h
# NCI-H322M = assay: Growth inhibition of human NCI-H322M cells after 48 hrs by sulforhodamine B assay; format: functional
# A549 [5] = assay: Growth inhibition of human A549/ATCC cells after 48 hrs by sulforhodamine B assay; format: functional; details: A549, 48 h
# ACHN = assay: Growth inhibition of human ACHN cells assessed as cell growth at 10 uM after 48 hrs by sulforhodamine B assay; format: functional; details: read-out: Activity
# 786-0 = assay: Growth inhibition of human 786-0 cells assessed as cell growth at 10 uM after 48 hrs by sulforhodamine B assay; format: functional; details: 786-0, 48 h, read-out: Activity
# OVCAR-4 = assay: Growth inhibition of human OVCAR4 cells assessed as cell growth at 10 uM after 48 hrs by sulforhodamine B assay; format: functional; details: OVCAR-4, 48 h, read-out: Activity
# OVCAR-3 = assay: Growth inhibition of human OVCAR3 cells assessed as cell growth at 10 uM after 48 hrs by sulforhodamine B assay; format: functional; details: OVCAR-3, 48 h, read-out: Activity
# SK-MEL-2 = assay: Growth inhibition of human SK-MEL-2 cells assessed as cell growth at 10 uM after 48 hrs by sulforhodamine B assay; format: functional; details: SK-MEL-2, 48 h, read-out: Activity
# SK-MEL-28 = assay: Growth inhibition of human SK-MEL-28 cells assessed as cell growth at 10 uM after 48 hrs by sulforhodamine B assay; format: functional; details: SK-MEL-28, 48 h, read-out: Activity
# M14 [6] = assay: Growth inhibition of human M14 cells assessed as cell growth at 10 uM after 48 hrs by sulforhodamine B assay; format: functional; details: M14, 48 h, read-out: Activity
# SNB-19 [7] = assay: Growth inhibition of human SNB19 cells assessed as cell growth at 10 uM after 48 hrs by sulforhodamine B assay; format: functional; details: SNB-19, 48 h, read-out: Activity
# SW-620 = assay: Growth inhibition of human SW620 cells assessed as cell growth at 10 uM after 48 hrs by sulforhodamine B assay; format: functional; details: SW-620, 48 h, read-out: Activity
# HT-29 [8] = assay: Growth inhibition of human HT-29 cells assessed as cell growth at 10 uM after 48 hrs by sulforhodamine B assay; format: functional; details: HT-29, 48 h, read-out: Activity
# KM12 = assay: Growth inhibition of human KM12 cells assessed as cell growth at 10 uM after 48 hrs by sulforhodamine B assay; format: functional; details: KM12, 48 h, read-out: Activity
# HCT-15 [9] = assay: Growth inhibition of human HCT15 cells assessed as cell growth at 10 uM after 48 hrs by sulforhodamine B assay; format: functional; details: HCT-15, 48 h, read-out: Activity
# [10] = Growth inhibition of human HCC2998 cells assessed as cell growth at 10 uM after 48 hrs by sulforhodamine B assay; format: functional; details: HCC 2998, 48 h, read-out: Activity
# [11] = Growth inhibition of human Hs 578T cells after 48 hrs by sulforhodamine B assay; format: functional
# DU-145 [12] = assay: Growth inhibition of human DU145 cells after 48 hrs by sulforhodamine B assay; format: functional; details: DU-145, 48 h
# PC-3 = assay: Growth inhibition of human PC3 cells after 48 hrs by sulforhodamine B assay; format: functional, cell-based; details: PC-3, 48 h
# RXF 393 = assay: Growth inhibition of human RXF393 cells after 48 hrs by sulforhodamine B assay; format: functional; details: RXF 393, 48 h
# SN12C = assay: Growth inhibition of human SN12C cells after 48 hrs by sulforhodamine B assay; format: functional
# A498 = assay: Growth inhibition of human A498 cells after 48 hrs by sulforhodamine B assay; format: functional, cell-based; details: A498, 48 h
# [13] = Growth inhibition of human NCI-ADR-RES cells after 48 hrs by sulforhodamine B assay; format: functional
# UACC-257 = assay: Growth inhibition of human UACC257 cells after 48 hrs by sulforhodamine B assay; format: functional; details: UACC-257, 48 h
# MDA-MB-435 = assay: Growth inhibition of human MDA-MB-435 cells after 48 hrs by sulforhodamine B assay; format: functional, cell-based; details: MDA-MB-435, 48 h
# M14 [14] = assay: Growth inhibition of human M14 cells after 48 hrs by sulforhodamine B assay; format: functional; details: M14, 48 h
# SNB-75 = assay: Growth inhibition of human SNB75 cells after 48 hrs by sulforhodamine B assay; format: functional; details: SNB-75, 48 h
# U-251 = assay: Growth inhibition of human U251 cells after 48 hrs by sulforhodamine B assay; format: functional; details: U-251, 48 h
# SNB-19 [15] = assay: Growth inhibition of human SNB19 cells after 48 hrs by sulforhodamine B assay; format: functional; details: SNB-19, 48 h
# A549 [16] = assay: Growth inhibition of human A549/ATCC cells assessed as cell growth at 10 uM after 48 hrs by sulforhodamine B assay; format: functional; details: A549, 48 h, read-out: Activity
# [17] = read-out: LC50 (the source's name)
compound,measurement,setting,value
COc1cc(-c2nn(-c3cccc(NC(=O)c4ccc(Cl)c(C(F)(F)F)c4)c3)cc2-c2ccncc2)ccc1Cl,growth at 10 µM,[1],34.7%
same,growth at 10 µM,DU-145 [2],65.4%
same,growth at 10 µM,TK-10,69.5%
same,GI50,HT-29 [3],3.38 µM
same,TGI,HT-29 [3],> 32.5 µM
same,CC50,HT-29 [3]; [17],> 32.5 µM
same,GI50,HCT-116,2.49 µM
same,TGI,HCT-116,> 32.5 µM
same,CC50,HCT-116; [17],> 32.5 µM
same,GI50,HCT-15 [4],3.25 µM
same,LC50,HCT-15 [4],> 32.5 µM
same,TGI,HCT-15 [4],> 32.5 µM
same,GI50,NCI-H322M,12.8 µM
same,TGI,NCI-H322M,> 32.5 µM
same,CC50,NCI-H322M; [17],> 32.5 µM
same,GI50,A549 [5],2.4 µM
same,LC50 (concentration killing 50% of starting cells),A549 [5],> 32.5 µM
same,TGI,A549 [5],> 32.5 µM
same,growth at 10 µM,ACHN,39.1%
same,growth at 10 µM,786-0,59.5%
same,growth at 10 µM,OVCAR-4,66%
same,growth at 10 µM,OVCAR-3,19.5%
same,growth at 10 µM,SK-MEL-2,18.9%
same,growth at 10 µM,SK-MEL-28,41.6%
same,growth at 10 µM,M14 [6],26.2%
same,growth at 10 µM,SNB-19 [7],66%
same,growth at 10 µM,SW-620,36.1%
same,growth at 10 µM,HT-29 [8],50.1%
same,growth at 10 µM,KM12,28.8%
same,growth at 10 µM,HCT-15 [9],51.7%
same,growth at 10 µM,[10],-8.08%
same,GI50,[11],2.17 µM
same,TGI,[11],> 32.5 µM
same,CC50,[11]; [17],> 32.5 µM
same,GI50,DU-145 [12],6.39 µM
same,LC50,DU-145 [12],> 32.5 µM
same,TGI,DU-145 [12],> 32.5 µM
same,GI50,PC-3,1.29 µM
same,IC50,PC-3,1.29 µM
same,TGI,PC-3,> 32.5 µM
same,CC50,PC-3; [17],> 32.5 µM
same,GI50,RXF 393,1.76 µM
same,LC50 (concentration killing 50% of cells),RXF 393,> 32.5 µM
same,TGI,RXF 393,18.7 µM
same,GI50,SN12C,11.2 µM
same,TGI,SN12C,> 32.5 µM
same,CC50,SN12C; [17],> 32.5 µM
same,GI50,A498,2.7 µM
same,IC50,A498,2.7 µM
same,TGI,A498,22.7 µM
same,CC50,A498; [17],> 32.5 µM
same,GI50,[13],1.29 µM
same,TGI,[13],11.2 µM
same,CC50,[13]; [17],> 32.5 µM
same,GI50,UACC-257,7.13 µM
same,TGI,UACC-257,> 32.5 µM
same,CC50,UACC-257; [17],> 32.5 µM
same,GI50,MDA-MB-435,0.664 µM
same,IC50,MDA-MB-435,0.66 µM
same,TGI,MDA-MB-435,1.74 µM
same,CC50,MDA-MB-435; [17],24.7 µM
same,GI50,M14 [14],2.79 µM
same,LC50 (concentration killing 50% of cells),M14 [14],> 32.5 µM
same,TGI,M14 [14],> 32.5 µM
same,GI50,SNB-75,2.19 µM
same,"LC50 (lethal concentration, 50% net cell kill)",SNB-75,> 32.5 µM
same,TGI,SNB-75,29.2 µM
same,GI50,U-251,3.1 µM
same,LC50 (concentration killing 50% of cells),U-251,> 32.5 µM
same,TGI,U-251,> 32.5 µM
same,GI50,SNB-19 [15],8.68 µM
same,LC50 (concentration killing 50% of cells),SNB-19 [15],> 32.5 µM
same,TGI,SNB-19 [15],> 32.5 µM
same,growth at 10 µM,A549 [16],23.3%
